Test results as given in ChEMBL document CHEMBL4665649, “Resistance mechanisms and cross-resistance for a pyridine-pyrimidine amide inhibitor of microtubule polymerization” (Bioorg Med Chem Lett, 2019).
Activity calls are given as the source filed them. No cut-off for these calls is given here.

Key:
A2780 [1] = experiment: Antiproliferative activity against D4-9-31 resistance human A2780 cells assessed as reduction in mitochondrial respiration; type: functional, cell-based
A2780 [2] = experiment: Antiproliferative activity against human A2780 cells incubated for 72 hrs by live-cell imaging based assay; type: functional; settings: A2780, 72 h
A2780 [3] = experiment: Antiproliferative activity against D4-9-31 resistance human A2780 cells incubated for 72 hrs by ATPlite reagent based assay; type: functional, cell-based; settings: A2780, 72 h
A2780 [4] = experiment: Antiproliferative activity against human A2780 cells assessed as reduction in mitochondrial respiration; type: functional, cell-based
A2780 [5] = experiment: Antiproliferative activity against human A2780 cells incubated for 72 hrs by ATPlite reagent based assay; type: functional, cell-based; settings: A2780, 72 h

Structure (SMILES)	Activity (A2780 [1])	EC50 (A2780 [2])	EC50 (A2780 [3])	Activity (A2780 [4])	EC50 (A2780 [5])
Cc1ncc(C(=O)Nc2ccc(-c3cccc(S(=O)(=O)C4CC4)c3)cn2)cn1	Active	12 nM	23 nM	Active	9.9 nM
COc1cc2c(c(OC)c1OC)-c1ccc(OC)c(=O)cc1[C@@H](NC(C)=O)CC2 [COLCHICINE]	–	–	8.7 nM	–	9.2 nM
O=C(Nc1ccncc1)C(=O)c1cn(Cc2ccc(Cl)cc2)c2ccccc12 [INDIBULIN]	–	–	20 nM	–	19 nM
CC(=O)O[C@H]1C(=O)[C@@]2(C)[C@H]([C@H](OC(=O)c3ccccc3)[C@]3(O)C[C@H](OC(=O)[C@H](O)[C@@H](NC(=O)c4ccccc4)c4ccccc4)C(C)=C1C3(C)C)[C@]1(OC(C)=O)CO[C@@H]1C[C@@H]2O [PACLITAXEL]	–	–	2.4 nM	–	2.5 nM
C/C(=C\c1csc(C)n1)[C@@H]1C[C@@H]2O[C@]2(C)CCC[C@H](C)[C@H](O)[C@@H](C)C(=O)C(C)(C)[C@@H](O)CC(=O)O1 [PATUPILONE]	–	–	4 nM	–	5.2 nM
CC[C@]1(O)C[C@H]2CN(CCc3c([nH]c4ccccc34)[C@@](C(=O)OC)(c3cc4c(cc3OC)N(C=O)[C@H]3[C@@](O)(C(=O)OC)[C@H](OC(C)=O)[C@]5(CC)C=CCN6CC[C@]43[C@@H]65)C2)C1 [VINCRISTINE]	–	–	3.9 nM	–	3.4 nM
